Measurements reported in patent US6903135B2, “Methods and products related to 16-HETE analogs” (Board of Regents, The University of Texas System, priority 1998, dated 2005).
Marks after values point to notes of the source that are not given here.

Assays:
Assay type in all cases: cell-based
[1] = tested on: neutrophils in diluted human blood; assay: fMLP-induced neutrophil aggregation in diluted human blood; details: for Aggregation (percent of inhibition from HETE untreated cells): 1 µM compound, N = 4; for inhibition of neutrophil aggregation: no concentration given
Method: (§1) Stimulated neutrophil aggregation and oxygen free radical release were examined in whole human blood using a whole-blood aggregometer-chemiluminometer (Chronolog, Haverton, Pa.) as described in Bednar et al. J. Thromb. Thrombol. 1, 179-185 (1995). Briefly, blood samples containing heparin (1 U/ml) as the anticoagulant were diluted in HBSS in proportion 1 to 9. Diluted blood aliquots (1 ml) were stirred (400 rpm) in a prewarmed (37° C.) siliconized cuvette containing cytochalasin b (5 μg/ml) and luminol (in 8 μl DMSO, 500 μM final concentration) and the test HETE (concentration 0.01 to 10 μM) for 10 min. Neutrophils were stimulated with a submaximal dose of fMLP (5×10^−7M final concentration). The aggregation and chemiluminescence were simultaneously measured as changes of impedance and luminescence, respectively. The fMLP-induced chemiluminescence was calculated as the peak height of the reaction.
The methods were performed as described above in Example 3.

[2] = tested on: LTB4 synthesis in neutrophils; assay: Neutrophil LTB4 production stimulated by fMLP; details: 1 μM, 10 min preincubation, fMLP 5×10^−7 M; fMLP alone 92.8±27.1, unstimulated 49.9±24.2; n=4
Method: 16(R)-HETE (0.01-1.0 μM) was preincubated for 10 minutes with the neutrophil suspension (3×10^6/ml) prior to the addition of formyl-methionyl-leucyl-phenylalanine (fMLP). Samples were then incubated for an additional 10 minutes with 5×10^−7M fMLP. All incubations took place at 37° C. Plasma samples for the measurement of LTB4 were collected by centrifugation of the whole blood samples at 1200 rpm for 15 minutes. Samples were stored at […] until analyzed. The plasma was then acidified to pH3 with 1M Hcl. The plasma was then placed on C2 reverse phase columns (Amprep for Amersham Corp., Arlington Heights, Ill.) to extract LTB4. LTB4 was then measured using the Biotrak LTB4 enzyme immunoassay system (Amersham Corp., Arlington Heights, Ill.). All standards and samples were performed in duplicate. Following incubation, all samples were read at 450 nm and the LTB4 concentration in each sample was determined following the generation of a standard curve. LTB4 concentration was expressed as picograms LTB4 per 1000 neutrophils.

basal human neutrophils = assay: Basal neutrophil adhesion to gelatin matrix
Method: (§2) Venous blood (60-70 ml) was collected from four healthy, normal volunteers into syringes containing heparin (1 U/ml). Polymorphonuclear leukocytes (PMNs) were isolated by a histopaque density gradient technique as previously described in Liu et al., Adhesion, Its role in Inflammatory Disease, Freeman and Co., New York, 1992, pp 189-192. Briefly, blood aliquots (6 ml) were layered over two layers (3 ml) of histopaque 1077 and 1119 in a conical centrifuge tube. The sample was then subjected to centrifugation at 100×g for 30 minutes at room temperature and the top layer, containing the neutrophils, was carefully collected. Hypotonic lysis was used to separate out the red blood cells. The neutrophils were then isolated from the sample by centrifugation (2000×g) and suspended in Hanks balanced salt solution (HBSS) containing 1 mM Ca^+ and 0.8 mM Mg^+ for studies involving arachidonic acid metabolism, and in M199 (with 1% BSA) for neutrophil adhesion assays. Total cells were counted using a hemocytometer and leukocytes were counted after staining with Wright-Giemsa stain. For each experiment, the cell preparations used contain ≧97% neutrophils, having ≧95% viability as determined by a trypan blue exclusion assay.
(§3) Isolated neutrophils were resuspended in M199 containing 1% BSA with a final concentration of 3×10^6 cells per ml. Cells suspensions (1 ml) were incubated with or without a test compound, 16(S)-HETE, 16(R)-HETE, or 20-HETE (concentrations 0.01 to 10 μM) for 10 min and then placed into gelatin-coated wells and further incubated for 20 min at 37° C. The wells were washed three times with 0.5 ml of solution M199 to remove non-adherent cells. The adherent cells were then removed by addition of 0.4 ml of 0.25% trypsin-EDTA in 0.1 M PBS to the gelatin-coated wells and incubation for 10 min at 37° C. The incubates were transferred and the wells were washed with 0.1 ml of M199 solution. The amount of cells in combined solutions was counted. In some experiments, the adhesion of neutrophils was stimulated by addition of 1 U/ml of thrombin to neutrophil suspension immediately prior to the transfer of cells to the wells. Experiments were performed in duplicates for each concentration of HETE. The inhibition of adhesion was expressed as percent of cells remaining in suspension (non-adherent) relative to control. The range of adherent PMNs in control incubations was 6 to 23%. This was increased two-fold in the presence of thrombin.

[3] = tested on: thrombin-stimulated human neutrophils; assay: Thrombin-stimulated neutrophil adhesion to gelatin matrix
Method: as §2
as §3, with “In some experiments, the adhesion of neutrophils was stimulated by addition of 1 U/ml of thrombin to neutrophil suspension immediately prior to the transfer of cells to the wells. Experiments were performed in duplicates for each concentration of HETE.” left out, “The range of adherent PMNs in control incubations was 6 to 23%. This was increased two-fold in the presence of thrombin.” left out

platelets [4] = assay: ATP release from ADP-stimulated platelets; details: 1 μM, ADP 5 μM, n=3, mean±sem
From the text: (§4) Platelet aggregation was examined in diluted whole blood using a Chronolog whole blood aggregometer (Havertown, Pa.) as previously described (Bednar, M. M.; Dooley, R. H.; Zamani, M.; Howard, D. B.; and Gross, C. E. Neutrophil and platelet activity and quantification following delayed t-PA therapy in a rabbit model of thromboembolic stroke. J. Thromb. Thrombol. 1:179-185 (1995). Briefly, whole blood was collected in 3.8% sodium citrate (9:1, v/v) and was subsequently diluted 50:50 with normal saline. Aggregation was assessed over a 6 minute interval following addition of a submaximal concentration of adenosine diphosphate (ADP, 5 μM: Sigma Corporation, St. Louis, Mo.). Aggregation was then repeated following a ten minute incubation with either 1 μM or 16(R)-HETE or 16(S)-HETE and expressed as the change in impedance as a percentage of the baseline value. Adenosine triphosphate (ATP) release was simultaneously measured from ADP-stimulated platelets in the Chronolog whole blood aggregometer using the Chrono-Lume luminescent agent (firefly luciferin-luciferase). Samples were compared to chemiluminescence obtained from ATP standards following the addition of luciferin-luciferase.

[5] = tested on: neutrophils in diluted human blood; assay: fMLP-induced neutrophil aggregation in diluted human blood; details: 1 mM [sic] HETE, fMLP 5×10^−7 M, N = 3 to 4
[6] = tested on: neutrophils in diluted human blood; assay: fMLP-stimulated oxygen free radical release (luminol chemiluminescence) in diluted human blood; details: for OFR Release (percent of inhibition from HETE untreated cells): 1 mM [sic] HETE, fMLP 5×10^−7 M, chemiluminescence, N = 3 to 4
Method: as §1, with “Diluted blood aliquots (1 ml) were stirred (400 rpm) in a prewarmed (37° C.) siliconized cuvette containing cytochalasin b (5 μg/ml) and luminol (in 8 μl DMSO, 500 μM final concentration) and the test HETE (concentration 0.01 to 10 μM) for 10 min.” left out

platelets [7] = assay: ADP-induced platelet aggregation in diluted whole blood; details: 1 μM, ten minute incubation, ADP 5 μM, n=3, mean±sem
From the text: as §4

human neutrophils = assay: Agonist activity on human neutrophils; details: concentrations ≦20 μM
[8] = concentrations of one micromolar, four observations per compound

## 5,6,14,15-Dehydro-8,9,11,12-tetrahydro-16(R)-HETE
[1]
  Aggregation (percent of inhibition from HETE untreated cells): 79.4 +/− 12.2%

## CCCC[C@@H](O)CCCCCCCCCCCCCCC(=O)O [5,6,8,9,11,12,14,15-octahydro-16(R)-HETE]
[1]
  Aggregation (percent of inhibition from HETE untreated cells): 122.8 +/− 15.4%

## CCCC[C@@H](O)/C=C\CCCCCCC/C=C\CCCC(=O)O [8,9,11,12-tetrahydro-16(R)-HETE]
[1]
  Aggregation (percent of inhibition from HETE untreated cells): 71.1 +/− 10.3* percent

## CCCCC[C@H](O)/C=C/C=C\C/C=C\C/C=C\CCCC(=O)O [15-HETE]
[1]
  inhibition of neutrophil aggregation: neither 20-HETE nor 15-HETE inhibited

## CCCCC(O)/C=C\C/C=C\C/C=C\C/C=C\CCCC(=O)NS(C)(=O)=O [16(R)-HETE sulfonimide, N-methylsulfonyl-16-hydroxyeicosa-5,8,11,14-(Z)-tetraenamide]
[1]
  Aggregation (percent of inhibition from HETE untreated cells): 47.6 +/− 20.5* percent
[1]; [8]
  inhibition of fMLP-induced neutrophil aggregation: slightly lower activity than 16-HETE (R)

## CCCC[C@@H](O)C=CCC=CCC=CCC=CCCCC(=O)O [16(R)-HETE, 16(R)-hydroxy-5,8,11,14-eicosatetraenoic acid]
[2]
  LTB4 synthesis: 17.0±3.2 pg/1000 neutrophils
Basal human neutrophils; Homo sapiens, Neutrophil, 1 μM, 10 min preincubation, unstimulated neutrophils, gelatin matrix
  inhibition at 1 µM: 73 ± 11%
Basal human neutrophils; preincubation with 10 μM
  inhibition of neutrophil adhesion to gelatin: completely inhibited
[3]; Homo sapiens, Neutrophil, 1 μM, thrombin 1 U/ml, 3×10^6 cells/ml
  inhibition at 1 µM: 50 ± 4%
Platelets [4]
  ATP release from ADP-stimulated platelets, % of the control sample: 99.3±0.7%
[5]
  Aggregation (percent of inhibition from HETE untreated cells): 42.0 ± 11.0%
[6]
  OFR Release (percent of inhibition from HETE untreated cells): 8.9 ± 5.1%
[1]
  Aggregation (percent of inhibition from HETE untreated cells): 42.0 ± 11.0%
[1]; Homo sapiens, Neutrophil, fMLP 5×10^−7 M, read-out: IC50, inhibition of fMLP-induced neutrophil aggregation
  IC50: 1200 nM
[1]; [8]
  inhibition of fMLP-induced neutrophil aggregation: inhibited
Platelets [7]
  ADP-induced platelet aggregation, % of the control value: 85.9±21.4%

## CCCC[C@H](O)/C=C\C/C=C\C/C=C\C/C=C\CCCC(=O)O [16(S)-HETE]
Basal human neutrophils; 1 μM, 10 min preincubation, unstimulated neutrophils, gelatin matrix
  inhibition of basal neutrophil adhesion: 39±8%
[3]; 1 μM, thrombin 1 U/ml, 3×10^6 cells/ml
  inhibition of thrombin-stimulated neutrophil adhesion: 40±14%
Platelets [4]
  ATP release from ADP-stimulated platelets, % of the control sample: 108.0±6.8%
[5]
  Aggregation (percent of inhibition from HETE untreated cells): 7.0 ± 3.5%
[6]
  OFR Release (percent of inhibition from HETE untreated cells): 5.6 ± 16.7%
[1]; concentrations of ≦10 μM
  inhibition of fMLP-induced neutrophil aggregation: not active
Platelets [7]
  ADP-induced platelet aggregation, % of the control value: 101.3±14.0%

## O=C(O)CCC/C=C\C/C=C\C/C=C\C/C=C\CCCCCO [20-HETE]
Basal human neutrophils; concentrations up to 1 μM
  activity in assay of neutrophil adhesion: no activity
Basal human neutrophils; concentrations ≦10 μM
  inhibition of neutrophil adhesion, basal conditions: did not inhibit
[3]; concentrations ≦10 μM
  inhibition of neutrophil adhesion, stimulated conditions: did not inhibit
[5]
  Aggregation (percent of inhibition from HETE untreated cells): 8.1 ± 2.6%
[6]
  OFR Release (percent of inhibition from HETE untreated cells): 3.9 ± 13.4%
[6]; concentrations up to 1 μM
  activity in assay of luminol chemiluminescence: no activity
Human neutrophils
  agonist activity on human neutrophils: no detectable agonist activity
[1]; concentrations of ≦10 μM
  inhibition of fMLP-induced neutrophil aggregation: not active
[1]; concentrations up to 1 μM
  activity in assay of neutrophil aggregation: no activity
[1]
  inhibition of neutrophil aggregation: neither 20-HETE nor 15-HETE inhibited

## C(1)-hydroxyl 16-HETE
[1]
  Aggregation (percent of inhibition from HETE untreated cells): 84.6 +/− 11.4%
